Data taken from patent publication US5773458A, “1-azabicycloheptane derivatives” (American Home Products Corporation, priority 1997, dated 1998).

Molecular target: T1, M1 acetylcholine receptors (Homo sapiens, UniProt P11229)
T1 construct: expressed in transfected cells; host or cells: Chinese Hamster Ovary (CHO) cells, CMV vector
T1 sequence (P11229 1-460): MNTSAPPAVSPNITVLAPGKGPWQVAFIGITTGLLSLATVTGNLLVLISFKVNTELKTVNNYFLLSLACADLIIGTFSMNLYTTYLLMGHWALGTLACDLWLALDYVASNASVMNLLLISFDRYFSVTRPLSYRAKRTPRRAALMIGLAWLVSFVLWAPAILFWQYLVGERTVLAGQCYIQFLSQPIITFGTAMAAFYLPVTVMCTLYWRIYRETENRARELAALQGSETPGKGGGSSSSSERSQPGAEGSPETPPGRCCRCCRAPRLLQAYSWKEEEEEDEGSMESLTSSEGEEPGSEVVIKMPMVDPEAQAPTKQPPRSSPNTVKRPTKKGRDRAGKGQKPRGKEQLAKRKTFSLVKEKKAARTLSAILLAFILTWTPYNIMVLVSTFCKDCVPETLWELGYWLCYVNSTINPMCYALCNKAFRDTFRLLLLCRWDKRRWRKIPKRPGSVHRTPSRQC
Experiment: Phosphoinositide (PI) hydrolysis in transfected CHO cells
Format: cell-based
Conditions: statement in words, no figures given
Experimental: The tubes are incubated for one hour at 37° C. The reaction is quenched with chloroform and the phosphatidyl inositols are extracted with methanol and chloroform. Phase separation is assured with the addition of methanol and water followed by centrifugation. The tritiated inositol phosphates are recovered on BioRad AG 1-X8 anion exchange resin in the formate cycle. After washing the resin with water and myo-inositol, the inositol phosphates are eluted with ammonium formate/formic acid, collected and subjected to liquid scintillation spectroscopy.

functional m1 muscarinic agonism: enhanced muscarinic agonism
Structure (SMILES): CNC(=O)O[C@@H]1C[N+]2([O-])CC[C@@H]1C2 (relative stereo) [Example 1, (exo)--Methylcarbamic acid 1-oxy-1-aza-bicyclo[2.2.1]hept-3-yl ester]
